Reference: patent US10508085B2, “Compounds and methods for IDO and TDO modulation, and indications therefor” (Plexxikon Inc., priority 2016, dated 2019)

Legend:
[1] = biological target: T1, Human Tryptophan 2,3-dioxygenase (TDO) (Homo sapiens, UniProt P48775); experiment: Human TDO enzymatic assay (kynurenine level); type: biochemical; conditions: 1 nM TDO, 350 μM L-Trp; geometric mean; read-out: TDO GMean: IC50 (μM) (Biochemical Assay)
T1 construct: His tag (N); made in house; host or cells: E. coli
Summary of the method: (§1)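 Kynurenine formed is measured after TCA quench and 50 °C hydrolysis, with % inhibition against full-reaction and no-enzyme controls (5% DMSO). IDO: 6 nM enzyme, 10 μM L-Trp, 5 μM methylene blue, 20 min; TDO: 1 nM, 350 μM L-Trp, 0.4 μM methylene blue, 70 min; both pH 6.5, room temp, E. coli-expressed His-tagged.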

[2] = biological target: T2, Human Indoleamine 2,3-dioxygenase (IDO) (Homo sapiens, UniProt P14902); experiment: Human IDO enzymatic assay (kynurenine level); type: biochemical; conditions: 6 nM IDO, 10 μM L-Trp; geometric mean; read-out: IDO1 GMean: IC50 (μM) (Biochemical Assay)
T2 construct: His tag (N); made in house; host or cells: E. coli
Summary of the method: as §1

[3] = biological target: T3, human TDO (TDO-expressing HEK293 cells) (Homo sapiens, UniProt P48775); experiment: Cell based kynurenine assay, TDO-expressing HEK293 cell clones; conditions: TDO-expressing HEK293 cells, 24 hours incubation; geometric mean; read-out: HEK293 TDO Kynurenine GMean IC50 (μM) (Cellular Assay)
T3 construct: expressed in transfected cells
Summary of the method: (§2)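 Kynurenine in culture supernatant read after 24 h compound exposure of HEK293 cells stably expressing human IDO1 or TDO. IC50 from nonlinear regression of % inhibition relative to 0.2% DMSO cell (high) and media-only (low) controls.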

[4] = biological target: T4, human IDO (IDO1-expressing HEK293 cells) (Homo sapiens, UniProt P14902); experiment: Cell based kynurenine assay, IDO1-expressing HEK293 cell clones; conditions: IDO1-expressing HEK293 cells, 24 hours incubation; geometric mean; read-out: HEK293 IDO1 Kynurenine GMean IC50 (μM) (Cellular Assay)
T4 construct: expressed in transfected cells
Summary of the method: as §2

T3 sequence (P48775 whole entry): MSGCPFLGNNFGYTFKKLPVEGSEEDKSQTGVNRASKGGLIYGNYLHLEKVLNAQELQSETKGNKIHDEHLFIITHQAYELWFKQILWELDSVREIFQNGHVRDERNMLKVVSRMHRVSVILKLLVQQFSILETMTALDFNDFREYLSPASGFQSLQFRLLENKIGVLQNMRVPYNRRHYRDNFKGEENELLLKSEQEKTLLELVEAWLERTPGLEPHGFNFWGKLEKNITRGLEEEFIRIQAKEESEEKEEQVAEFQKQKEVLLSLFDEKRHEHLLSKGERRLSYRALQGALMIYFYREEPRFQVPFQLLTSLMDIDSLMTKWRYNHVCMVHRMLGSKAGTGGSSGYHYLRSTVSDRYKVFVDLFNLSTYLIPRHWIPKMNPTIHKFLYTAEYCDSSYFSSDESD
T1 sequence (P48775 whole entry): as above
T2 sequence (P14902 whole entry): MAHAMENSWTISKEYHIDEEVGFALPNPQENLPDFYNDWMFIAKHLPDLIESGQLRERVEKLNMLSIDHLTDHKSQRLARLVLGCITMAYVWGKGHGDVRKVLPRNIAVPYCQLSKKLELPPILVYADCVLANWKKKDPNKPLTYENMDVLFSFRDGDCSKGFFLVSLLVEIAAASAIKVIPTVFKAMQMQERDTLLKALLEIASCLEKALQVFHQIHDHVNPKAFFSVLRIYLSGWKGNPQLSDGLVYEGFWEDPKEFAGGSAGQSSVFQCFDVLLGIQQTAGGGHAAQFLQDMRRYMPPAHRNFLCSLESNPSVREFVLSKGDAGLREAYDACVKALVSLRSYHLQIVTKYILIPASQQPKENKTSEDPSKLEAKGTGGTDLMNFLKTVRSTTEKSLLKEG
T4 sequence (P14902 whole entry): as above

Compound | IC50 [1] | IC50 [2] | IC50 [3] | IC50 [4]
O=C(CC1CC1)N1CCC(C(F)(F)C(O)c2cc(Cl)cc3cn[nH]c23)CC1 (stereo not drawn) [Compound P-0149, 1-(4-(2-(5-chloro-1H-indazol-7-yl)-1,1-difluoro-2-hydroxyethyl)piperidin-l-yl)-2-cyclopropylethan-1-one] | 0.0001 to 10 µM | 0.0001 to 10 µM | 0.0001 to 10 µM | 0.0001 to 10 µM
O=C(Nc1ccccc1)N1CCC(C(F)(F)C(O)c2cc(Cl)cc3cn[nH]c23)CC1 (stereo not shown) [Compound P-0150, 4-(2-(5-chloro-1H-indazol-7-yl)-1,1-difluoro-2-hydroxyethyl)-N-phenylpiperidine-1-carboxamide] | 0.0001 to 10 µM | 0.0001 to 10 µM | 0.0001 to 10 µM | 0.0001 to 10 µM
O=C(Nc1cccc(F)c1)N1CCC(C(F)(F)C(O)c2cc(Cl)cc3cn[nH]c23)CC1 (stereo not shown) [Compound P-0152, 4-(2-(5-chloro-1H-indazol-7-yl)-1,1-difluoro-2-hydroxyethyl)-N-(3-fluorophenyl)piperidine-1-carboxamide] | 0.0001 to 10 µM | 0.0001 to 10 µM | 0.0001 to 10 µM | 0.0001 to 10 µM
O=C(Nc1cccc(C(F)(F)F)c1)N1CCC(C(F)(F)C(O)c2cc(Cl)cc3cn[nH]c23)CC1 (stereo not shown) [Compound P-0154, 4-(2-(5-chloro-1H-indazol-7-yl)-1,1-difluoro-2-hydroxyethyl)-N-(3-(trifluoromethyl)phenyl)piperidine-1-carboxamide] | 0.0001 to 10 µM | 0.0001 to 10 µM | 0.0001 to 10 µM | 0.0001 to 10 µM
COC(=O)N1CCC(C2(C(O)c3cc(Cl)cc4cn[nH]c34)CC2)CC1 (stereo not shown) [Compound P-0155, methyl 4-(1-((5-chloro-1H-indazol-7-yl)(hydroxy)methyl)cyclopropyl)piperidine-1-carboxylate] | 0.0001 to 10 µM | 0.0001 to 10 µM | 0.0001 to 10 µM | 0.0001 to 10 µM
CC(=O)N1CCC(C2(C(O)c3c(F)c(Cl)cc4cn[nH]c34)CC2)CC1 (stereo not drawn) [Compound P-0159, 1-(4-(1-((5-chloro-6-fluoro-1H-indazol-7-yl)(hydroxy)methyl)cyclopropyl)piperidin-1-yl)ethan-l-one] | 0.0001 to 10 µM | 0.0001 to 10 µM | 0.0001 to 10 µM | 0.0001 to 10 µM
COC(=O)N1CCC(C2(C(O)c3c(F)c(Cl)cc4cn[nH]c34)CC2)CC1 (stereo not shown) [Compound P-0160, methyl 4-(1-((5-chloro-6-fluoro-1H-indazol-7-yl)(hydroxy)methyl)cyclopropyl)piperidine-1-carboxylate] | 0.0001 to 10 µM | 0.0001 to 10 µM | 0.0001 to 10 µM | 0.0001 to 10 µM
NC(=O)N1CCC(C2(C(O)c3c(F)c(Cl)cc4cn[nH]c34)CC2)CC1 (stereo not shown) [Compound P-0161, 4-(1-((5-chloro-6-fluoro-1H-indazol-7-yl)(hydroxy)methyl)cyclopropyl)piperidine-1-carboxamide] | 0.0001 to 10 µM | 0.0001 to 10 µM | 0.0001 to 10 µM | 0.0001 to 10 µM
CNC(=O)N1CCC(C2(C(O)c3c(F)c(Cl)cc4cn[nH]c34)CC2)CC1 (stereo not shown) [Compound P-0162, 4-(1-((5-chloro-6-fluoro-1H-indazol-7-yl)(hydroxy)methyl)cyclopropyl)-N-methylpiperidine-1-carboxamide] | 0.0001 to 10 µM | 0.0001 to 10 µM | 0.0001 to 10 µM | 0.0001 to 10 µM
O=C(Nc1ccc(F)cc1)N1CCC(C2(C(O)c3c(F)c(Cl)cc4cn[nH]c34)CC2)CC1 (stereo not shown) [Compound P-0164, 4-(1-((5-chloro-6-fluoro-1H-indazol-7-yl)(hydroxy)methyl)cyclopropyl)-N-(4-fluorophenyl)piperidine-1-carboxamide] | 0.0001 to 10 µM | 0.0001 to 10 µM | 0.0001 to 10 µM | 0.0001 to 10 µM
CS(=O)(=O)N1CCC(C2(C(O)c3c(F)c(Cl)cc4cn[nH]c34)CC2)CC1 (stereo not shown) [Compound P-0165, (5-chloro-6-fluoro-1H-indazol-7-yl)(1-(1-(methylsulfonyl)piperidin-4-yl)cyclopropyl)methanol] | 0.0001 to 10 µM | 0.0001 to 10 µM | 0.0001 to 10 µM | 0.0001 to 10 µM
CC(C)(C1CCN(C(=O)Nc2ccc(F)cc2)CC1)C(O)c1cc(Cl)cc2cn[nH]c12 (stereo not shown) [Compound P-0167, 4-(1-(5-chloro-1H-indazol-7-yl)-1-hydroxy-2-methylpropan-2-yl)-N-(4-fluorophenyl)piperidine-1-carboxamide] | 0.0001 to 10 µM | 0.0001 to 10 µM | 0.0001 to 10 µM | 0.0001 to 10 µM
CCC(=O)NC(C)(C)CC(O)c1cc(Cl)cc2cn[nH]c12 (stereo not shown) [Compound P-0170, N-(4-(5-chloro-1H-indazol-7-yl)-4-hydroxy-2-methylbutan-2-yl)propionamide] | 0.0001 to 10 µM | 0.0001 to 10 µM | > 10 µM | > 10 µM
CC(C)(C1CCN(S(C)(=O)=O)CC1)C(O)c1cc(Cl)cc2[nH]ncc12 (stereo not shown) [Compound P-0171, 1-(6-chloro-1H-indazol-4-yl)-2-methyl-2-(1-(methylsulfonyl)piperidin-4-yl)propan-1-ol] | 0.0001 to 10 µM | 0.0001 to 10 µM | 0.0001 to 10 µM | > 10 µM
OC(c1cc(Cl)cc2[nH]ncc12)C1CCCCC1 (stereo not shown) [Compound P-0173, (6-chloro-1H-indazol-4-yl)(cyclohexyl)methanol] | 0.0001 to 10 µM | 0.0001 to 10 µM | 0.0001 to 10 µM | > 10 µM

Other lines, results leading:

IC50 [1] | IC50 [2] | IC50 [3] | IC50 [4] | Compound
0.0001 to 10 µM | 0.0001 to 10 µM | 0.0001 to 10 µM | 0.0001 to 10 µM | CC(C)CC(=O)N1CCC(C(F)(F)C(O)c2cc(Cl)cc3cn[nH]c23)CC1 (stereo not drawn) [Compound P-0148, 1-(4-(2-(5-chloro-1H-indazol-7-yl)-1,1-difluoro-2-hydroxyethyl)piperidin-l-yl)-3-methylbutan-1-one]
0.0001 to 10 µM | 0.0001 to 10 µM | 0.0001 to 10 µM | 0.0001 to 10 µM | O=C(Nc1ccc(F)cc1)N1CCC(C(F)(F)C(O)c2cc(Cl)cc3cn[nH]c23)CC1 (stereo not shown) [Compound P-0151, 4-(2-(5-chloro-1H-indazol-7-yl)-1,1-difluoro-2-hydroxyethyl)-N-(4-fluorophenyl)piperidine-1-carboxamide]
0.0001 to 10 µM | 0.0001 to 10 µM | 0.0001 to 10 µM | 0.0001 to 10 µM | O=C(Nc1ccc(C(F)(F)F)cc1)N1CCC(C(F)(F)C(O)c2cc(Cl)cc3cn[nH]c23)CC1 (stereo not shown) [Compound P-0153, 4-(2-(5-chloro-1H-indazol-7-yl)-1,1-difluoro-2-hydroxyethyl)-N-(4-(trifluoromethyl)phenyl)piperidine-1-carboxamide]
0.0001 to 10 µM | 0.0001 to 10 µM | 0.0001 to 10 µM | 0.0001 to 10 µM | NC(=O)N1CCC(C2(C(O)c3cc(Cl)cc4cn[nH]c34)CC2)CC1 (stereo not shown) [Compound P-0156, 4-(1-((5-chloro-1H-indazol-7-yl)(hydroxy)methyl)cyclopropyl)piperidine-1-carboxamide]
0.0001 to 10 µM | 0.0001 to 10 µM | 0.0001 to 10 µM | 0.0001 to 10 µM | O=C(Nc1ccc(F)cc1)N1CCC(C2(C(O)c3cc(Cl)cc4cn[nH]c34)CC2)CC1 (stereo not shown) [Compound P-0157, 4-(1-((5-chloro-1H-indazol-7-yl)(hydroxy)methyl)cyclopropyl)-N-(4-fluorophenyl)piperidine-1-carboxamide]
0.0001 to 10 µM | 0.0001 to 10 µM | 0.0001 to 10 µM | 0.0001 to 10 µM | CS(=O)(=O)N1CCC(C2(C(O)c3cc(Cl)cc4cn[nH]c34)CC2)CC1 (stereo not shown) [Compound P-0158, (5-chloro-1H-indazol-7-yl)(1-(1-(methylsulfonyl)piperidin-4-yl)cyclopropyl)methanol]
0.0001 to 10 µM | 0.0001 to 10 µM | 0.0001 to 10 µM | 0.0001 to 10 µM | Nc1nc(C(=O)N2CCC(C3(C(O)c4cc(Cl)cc5cn[nH]c45)CC3)CC2)cs1 (stereo not shown) [Compound P-0166, (2-aminothiazol-4-yl)(4-(1-((5-chloro-1H-indazol-7-yl)(hydroxy)methyl)cyclopropyl)piperidin-1-yl)methanone]
0.0001 to 10 µM | 0.0001 to 10 µM | 0.0001 to 10 µM | 0.0001 to 10 µM | CC(C)(C1CCN(C(=O)Nc2ccc(C#N)cc2)CC1)C(O)c1cc(Cl)cc2cn[nH]c12 (stereo not shown) [Compound P-0168, 4-(1-(5-chloro-1H-indazol-7-yl)-1-hydroxy-2-methylpropan-2-yl)-N-(4-cyanophenyl)piperidine-1-carboxamide]
0.0001 to 10 µM | 0.0001 to 10 µM | 0.0001 to 10 µM | 0.0001 to 10 µM | CNC(=O)N1CCC(C(C)(C)C(O)c2cc(Cl)cc3[nH]ncc23)CC1 (stereo not shown) [Compound P-0169, 4-(1-(6-chloro-1H-indazol-4-yl)-1-hydroxy-2-methylpropan-2-yl)-N-methylpiperidine-1-carboxamide]
0.0001 to 10 µM | 0.0001 to 10 µM | 0.0001 to 10 µM | 0.0001 to 10 µM | CC(=O)N1CCC(C(C)(C)C(O)c2cc(Cl)cc3[nH]ncc23)CC1 (stereo not shown) [Compound P-0172, 1-(4-(1-(6-chloro-1H-indazol-4-yl)-1-hydroxy-2-methylpropan-2-yl)piperidin-1-yl)ethan-1-one]
